Assay results as given in PubChem BioAssay AID624456 (Sanford-Burnham Center for Chemical Genomics, 2012).

System: compound stability in 1x PBS, percent remaining
Test: percent compound remaining in PBS buffer – biochemical, 1x PBS, with and without 50% ACN, set 2, ADME assay (AID 624456);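 further: percent left after two days of incubation at room temperature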
[1] = measured here: stability in PBS with 50% ACN

Compound | stability [%] | stability [1] [%]
Cn1nnnc1Sc1ncnc2scc(-c3ccccc3)c12 | 85 | 95.1
CCCn1ncc(CN2CCCC(C(=O)c3cccc(OC(C)C)c3)C2)c1C (stereo not given) | 100 | 100
Cc1cc(-c2nnc3n2CCCCC3)c(C)n1-c1ccccc1 | 100 | 100
O=C1NCCCc2c1oc1ccc(O)cc21 | 100 | 100
O=c1[nH]c(SCc2ccc(Cl)cc2)nc2c1CCC2 | 98.3 | 100
N#Cc1ccccc1CSc1nc2ncc(Br)cc2[nH]1 | 60.5 | 55.9
Cc1ccc(N2CCN(S(=O)(=O)N3CCCCC3)CC2)c(C)c1 | 15.1 | 96.7
Brc1cc2c(cc1C1Nc3ccccc3C3C=CCC31)OCO2 (stereo not given) | 0.38 | 68.9
NC(=O)C1CCN(c2nc(-c3ccc(Br)cc3)cs2)CC1 | 70.8 | 100
CC1CCCN(C(C(=O)Nc2ccc3c(c2)OCCO3)c2ccccc2)C1 (stereo not given) | 100 | 100
Cn1cnc([N+](=O)[O-])c1Sc1ncnc2nc[nH]c12 | 31.9 | –
CC[C@H]1CN2CCc3cc(OC)c(OC)cc3[C@@H]2C[C@@H]1C[C@H]1NCCc2cc(OC)c(OC)cc21 | 23.6 | 90
CCN1CCN(c2nc3ccccc3nc2C(C#N)C(=O)OC2CCCCC2)CC1 (stereo not given) | 33.4 | 80.1
O=C(c1ccccn1)N(Cc1cccs1)C1(C(=O)NC2CCCCC2)CCCCC1 | 93.9 | 97.5
CCCc1nc2c(=O)n(C)c(=O)nc-2n(C)n1 | 100 | 100
COc1ccc(CSc2nc(C)cc(=O)[nH]2)cc1 | 88.5 | 99.8
O=S(=O)(NC1CCCCC1N1CCOCC1)c1ccc(Cl)cc1 (stereo not given) | 75 | 89.4

Compound | stability [%] | stability [1] [%]
O=c1[nH]c2c(s1)C(c1cccnc1)C1C3CCC(C3)C1S2 (stereo not given) | 55 | 66.5
CCOc1ccc(-c2nc(-c3ccncc3)no2)cc1OCC | 59.9 | 100
O=C(CSc1cccc2cccnc12)N1CCCC1 | 100 | 100
COc1ccc(C2c3c(ncn(CCN4CCOCC4)c3=N)Oc3ccc4ccccc4c32)cc1OC (stereo not given) | 76.7 | 85.6
CCOC(=O)C(C)Oc1cccc2c(=O)n(CC(=O)Nc3ccc4c(c3)OCCO4)ccc12 (stereo not given) | 56.1 | 94.6
O=C1CCCC2=C1C1(CCCC1)N=C(Nc1nc3ccccc3o1)N2 | 21.9 | 90.2
Cc1ccc(NC(=O)CCC(=O)N/N=C/c2ccc([N+](=O)[O-])o2)cc1C | 51.3 | 65.6
C/C=C/Cn1c(SCCCc2ccccc2)nc2c1c(=O)[nH]c(=O)n2C | 73.4 | 100
CCCN1CNc2c(c(=O)[nH]c(=S)n2CCc2ccc(OC)c(OC)c2)C1 | 78.5 | 100
CCCc1cc(C(=O)N(C2CCCCC2)C2CCCCC2)no1 | 6.53 | 76.7
COc1ccc(OC)c(-c2nnc3n2N=C(c2ccc(OC)c(OC)c2)CS3)c1 | 89.6 | 99.6
O=C(COC(=O)C12CC3CC(CC(C3)C1)C2)NCc1ccco1 | 49.6 | 88.2
CS(=O)(=O)c1ccc(C(=O)OCC(=O)NC23CC4CC(CC(C4)C2)C3)cc1[N+](=O)[O-] | 12.8 | 100
CCCN(CCC)CCNC(=O)C1CCN(Cc2nc(-c3ccc(Cl)cc3)oc2C)CC1 | 99.4 | 100
CCc1oc2ccccc2c1C(=O)c1cc(Br)c(O)c(Br)c1 | 100 | 100
Brc1ccc2c(c1)CN1CCCC1=N2 | 92.9 | 93.4
O=[N+]([O-])c1ccc(CN2CCOCCOCCN(Cc3ccc([N+](=O)[O-])cc3)CCOCC2)cc1 | 96.1 | 100

Now from value to compound:

stability [%] | stability [1] [%] | Compound
81.5 | 90.4 | COc1cccc(-c2nc(-c3ccc(NC(=O)Cc4ccccc4OC)cc3)no2)c1
83.8 | 99.3 | Cc1ccc(S(=O)(=O)C(c2ccccc2)c2c(C)noc2C)cc1 (stereo not given)
14.5 | 62.9 | O=C(O)c1ccc(N2C(=O)/C(=C/c3ccc(-c4ccc([N+](=O)[O-])cc4)o3)C=C2c2ccccc2)cc1
11.2 | 93.4 | COC(=O)c1ccccc1NC(=O)c1ccc(F)cc1
93.8 | 100 | Cc1ccnc(NC(=O)CCCOc2cc(=O)n(C)c3ccccc23)c1
50.6 | 100 | COc1ccc(CNCc2cccc3ccccc23)cc1
84.8 | 100 | Cc1ccc(S(=O)(=O)NCc2ccc(C(=O)NCCN(Cc3ccccc3)C(C)C)cc2)cc1
97.8 | 98.8 | Cc1ccc(S(=O)(=O)n2c(N)nc3ccccc32)cc1
9.08 | 100 | CN(C)c1oc(-c2ccc(OCc3ccc(Cl)cc3)cc2)nc1C#N
82.6 | 100 | C=CCn1c(SCC(=O)c2ccc(O)c(O)c2)nnc1-c1ccccc1OC
58.2 | 90.9 | COc1ccc(C2CC(c3ccccc3)=NN2c2ccc(S(N)(=O)=O)cc2)cc1 (stereo not given)
11.1 | 91.8 | COc1ccc(S(=O)(=O)n2nc(OC(=O)c3ccccc3)cc2N)cc1
10.1 | 98.9 | COc1nc(-c2ccccc2)nnc1-c1ccccc1
56 | 100 | Cc1cc(C)nc(-n2nc(C)c(Sc3ccc(F)cc3)c2N)n1
20.4 | 86.7 | Cc1cc2c(s1)c1cnn(Cc3ccccc3F)c(=O)c1n2C
91.6 | 100 | O=C(CCNS(=O)(=O)c1cccc2nsnc12)N1CCN(c2ccccn2)CC1
81.6 | 88.1 | COc1ccccc1N(/N=C1\Sc2ccccc2C1=O)C(C)=O
89.6 | 93 | COc1ccc(OC)c(S(=O)(=O)Nc2cnc3ccccc3c2)c1
100 | 100 | O=C(O)CCC(NS(=O)(=O)c1ccc(-c2ccccc2)cc1)C(=O)O (stereo not given)
90.3 | 100 | Cc1ccc(C)c(OCCn2cc(C(=O)O)c3ccccc32)c1
6.42 | 93.2 | c1ccc(CC2CCN(c3ncnc4sccc34)CC2)cc1
57.4 | 100 | c1ccc(-c2nnc(N3CCOCC3)nc2-c2ccccc2)cc1

stability [%] | stability [1] [%] | Compound
92.1 | 100 | O=C(COc1ccccc1Br)NCCc1nc2ccccc2[nH]1
84.2 | 100 | c1ccc2c(Nc3nnc(-c4ccncc4)s3)cccc2c1
68.5 | 100 | Cc1ccc(NS(=O)(=O)c2ccc3c(c2)CCC(=O)N3)cc1C
75.8 | 94.6 | CN(C)c1nc(N)nc(CSc2nnnn2-c2cccc3ccccc23)n1
81.4 | 98.2 | Cc1ccc(-n2c(N)c(C#N)c(-c3ccccc3)c(C#N)c2=O)cc1
34.6 | 98 | Cc1ccc(C)c(NS(=O)(=O)c2cc(C(=O)Nc3ccccc3-c3ccccc3)ccc2Cl)c1
0.45 | 96.5 | CSc1nc(-c2ccc(C)cc2)nc(C(Cl)Cl)n1
98.8 | 100 | O=C(O)c1ccccc1OCc1ccccc1Br
86 | 95.2 | CCc1nnc(NC(=O)c2ccc(NS(=O)(=O)c3ccccc3)cc2)s1
77.2 | 74.6 | Cc1ccc(C(=O)n2c3ccccc3c3ccccc32)cc1
74.2 | 84.7 | Cc1nc(SCc2nc3ccccc3[nH]2)c2oc3ccccc3c2n1
43.5 | 80 | Cc1cccc(-n2cnc3cc(C(=O)N4CCCCC4)ccc32)c1
71.8 | 100 | COc1ccc(N(C(=O)CCl)C(C(=O)NCCc2ccccc2)c2cccs2)cc1Cl (stereo not given)
50.8 | 100 | O=C1C2CC=CCC2C(=O)N1c1n[nH]c(-c2ccccc2)n1 (stereo not given)
72.3 | 80.8 | COc1ccc(S(=O)(=O)N2CCN(S(=O)(=O)c3ccc4c(c3)OCCO4)CC2)cc1
52.4 | 100 | N#C/C(=C\c1ccc([N+](=O)[O-])o1)c1nc2ccccc2[nH]1
73 | 85.4 | Cc1cc(C(=O)CN2C(=O)CCC2=O)c(C)n1Cc1ccccc1
79.5 | 86.7 | CCCC(=O)Nc1cccc(NC(=O)c2ccccc2Br)c1
95.7 | 100 | CC(=O)c1ccc(N2CCN(S(=O)(=O)c3ccc4c(c3)CC(=O)N4)CC2)cc1
92.9 | 100 | CC(C)C(=O)NC(c1ccco1)c1ccc2cccnc2c1O (stereo not given)
91.3 | 94.9 | O=S1(=O)Nc2c(ccc3cccnc23)-c2ccccc21
96.5 | 100 | O=C(O)c1cccnc1SCCc1ccccc1
